Results on 16 compounds are retold here after US20260209206A1, “STAT6 DEGRADERS AND USES THEREOF” (Kymera Therapeutics, Inc., priority 2023, published 2026).

In general, DC50 refers to the concentration at which degradation of the target reaches its halfway point. Read a low DC50 as degradation at low concentration. Usually Dmax stands for the greatest extent of degradation seen. High values mean deep degradation, low ones shallow degradation. Broadly, the IC50 is the concentration that gives 50% inhibition. Read a low IC50 as inhibition by little substance.

Experiment [1] deals with T1, STAT6 (Homo sapiens, UniProt P42226).
T1 construct: endogenous in cells; host or cells: A549 (STAT6-HiBiT), endogenous locus tagged
T1 sequence (P42226 1-847): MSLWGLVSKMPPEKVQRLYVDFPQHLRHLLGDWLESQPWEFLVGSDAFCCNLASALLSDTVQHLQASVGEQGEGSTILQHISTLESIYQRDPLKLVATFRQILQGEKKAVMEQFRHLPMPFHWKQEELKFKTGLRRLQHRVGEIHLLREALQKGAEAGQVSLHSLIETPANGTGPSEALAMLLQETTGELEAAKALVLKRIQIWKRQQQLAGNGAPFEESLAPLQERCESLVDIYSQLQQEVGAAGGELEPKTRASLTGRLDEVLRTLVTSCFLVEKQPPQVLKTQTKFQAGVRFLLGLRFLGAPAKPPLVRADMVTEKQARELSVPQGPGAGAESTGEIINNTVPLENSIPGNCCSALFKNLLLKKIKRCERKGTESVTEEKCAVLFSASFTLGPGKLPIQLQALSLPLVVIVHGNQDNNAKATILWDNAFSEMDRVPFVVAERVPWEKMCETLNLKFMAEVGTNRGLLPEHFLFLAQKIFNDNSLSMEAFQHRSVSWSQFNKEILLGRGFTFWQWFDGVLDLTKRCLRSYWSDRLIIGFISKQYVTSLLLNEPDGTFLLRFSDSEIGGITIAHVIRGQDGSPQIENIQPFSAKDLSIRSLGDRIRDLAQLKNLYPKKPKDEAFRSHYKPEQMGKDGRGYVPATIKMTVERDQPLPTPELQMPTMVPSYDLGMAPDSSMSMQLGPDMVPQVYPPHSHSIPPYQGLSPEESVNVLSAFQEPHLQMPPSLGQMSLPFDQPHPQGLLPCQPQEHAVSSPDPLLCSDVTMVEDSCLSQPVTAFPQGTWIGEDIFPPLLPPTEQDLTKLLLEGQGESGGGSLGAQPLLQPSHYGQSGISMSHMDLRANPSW
Description: STAT6 MSD degradation in A549 cells. Type of experiment: cell-based. Particulars: 24 h. How it is done:
Degradation of STAT6 in cells was quantitatively measured using Meso Scale Discovery (MSD) technology. A549 cells were seeded in 96-well plates with a density of 1.5×10e4 to 5×10e5 cells per well in 100 μl fresh media. Compounds were then added to the assay plates with a final top concentration of up to 10 uM in a 1:3 dilution series with total of 9 doses. The assay plates were then incubated for 4 to 24 hours at 37° C. under 5% CO2. The assay plates were then centrifuged for 5 minutes and the cell pellets were treated with 100 μl/well RIPA lysis buffer (Boston Bioproducts, BP-115D) with protease and phosphatase inhibitors (Roche, 05892791001 and 04906837001). To prepare the MSD assay plates (MSD, L15XA), the plates were coated with the capture antibody (Abnova, H00006778) in PBS, at 40 μl/well. The plates were then incubated overnight at 4° C., washed 1 time with […] TBST buffer (Cell Signaling Technology, #9997S) and blocked with 150 μl/well blocking buffer (MSD, R93BA-4). Cell lysates were then added to MSD assay plates and the plates were incubated at room temperature for 1 hour. The plates were then washed 3 times with 150 μl/well TBST buffer and 25 μl/well primary detection antibody (Cell Signaling Technology, #5397S). The assay plates were then incubated at room temperature for 1 hour, washed 3 times with 150 μl/well TBST buffer, and 25 μl/well secondary detection antibody, SULFO-TAG anti-rabbit antibody (MSD, R32AB-1) were added. The assay plates were then incubated at room temperature for 1 hour, washed 3 times with 150 μl/well TBST buffer, and 150 μl/well MSD reading buffer (MSD, R92TC-2) were added. The plates were then analyzed by an MSD reader. The data was analyzed by GraphPad Prism and the dose dependent STAT6 degradation was fit using the four-parameter inhibitor vs. response nonlinear regression.
The letter codes for DC50 (nM) include: A (<1 nM); B (1-10 nM); C (>10-100 nM); D (>100-1000 nM); E (>1000 nM); and F (not tested). The letter codes for Dmax (%) include: A (>90%); B (>70-90%); C (>50-70%); D (<50%); and E (not tested).

The target of experiment [2] is T1, STAT6. The experiment in a line: STAT6 HiBiT degradation in A549 (STAT6-HiBiT) cells. Type of experiment: cell-based. Conditions: 24 h. As for the experimental part:
Degradation of STAT6 in endogenously tagged STAT6-HiBiT A549 cells was quantitatively measured using the Nano-Glo HiBiT Lytic Detection System (Promega, 3040). A549 (STAT6-HiBiT) cells were seeded in 384-well plates with a density of 1.25k cells per well in 20 μl fresh media. Compounds were then added to the assay plates using the Apricot S3 with a final top concentration of up to 10 uM in a 4-fold dilution series with total of 10 doses. The assay plates were then incubated for 24 hours at 37° C. under 5% CO2. At the assay endpoint, 20 μL of Nano-Glo HiBiT Lytic Reagent was added to each well and agitated on a plate shaker at 300 rpm for 10 minutes at room temperature. Luminescence was read on PHERAStar FSX Instrument (Is integration time). The data was analyzed by GraphPad Prism and the dose dependent STAT6 degradation was fit using the four-parameter inhibitor vs. response nonlinear regression.
The letter codes for DC50 (nM) include: A (<1 nM): B (1-10 nM); C (>10-100 nM); D (>100-1000 nM); E (>1000 nM); and F (not tested). The letter codes for Dmax (%) include: A (>90%); B (>70-90%); C (>50-70%); D (<50%): and E (not tested).
In general terms: The HiBiT peptide binds its large partner to form an active luciferase.

Experiment [3] has as its target T2, biotinylated truncated STAT6 (123-632)-avi (Homo sapiens, UniProt P42226).
T2 construct: 0.15 nM biotinylated truncated STAT6 (123-632)-avi purified from E. coli; made in house; host or cells: E. coli
T2 sequence (P42226 123-632 limits assumed): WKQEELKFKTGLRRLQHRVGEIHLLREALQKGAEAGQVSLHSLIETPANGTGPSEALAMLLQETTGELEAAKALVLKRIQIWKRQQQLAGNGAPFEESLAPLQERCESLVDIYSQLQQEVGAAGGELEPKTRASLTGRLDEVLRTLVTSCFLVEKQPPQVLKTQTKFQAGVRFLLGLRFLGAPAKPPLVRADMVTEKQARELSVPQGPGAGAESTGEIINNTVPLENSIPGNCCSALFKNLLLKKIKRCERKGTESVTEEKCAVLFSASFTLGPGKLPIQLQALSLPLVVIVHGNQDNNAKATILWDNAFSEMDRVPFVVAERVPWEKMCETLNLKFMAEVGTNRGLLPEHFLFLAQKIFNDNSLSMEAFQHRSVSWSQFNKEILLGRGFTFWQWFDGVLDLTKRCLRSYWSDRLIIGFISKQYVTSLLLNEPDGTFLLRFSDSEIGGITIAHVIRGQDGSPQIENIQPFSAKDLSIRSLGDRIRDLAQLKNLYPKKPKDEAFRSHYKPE
The experiment in a line: STAT6 HTRF binding assay. Particulars: 0.15 nM STAT6 (123-632)-avi, 20 nM fluorescein-labeled probe, 30 minutes at room temperature. As for the experimental part: HTRF binding assays were perforned using 0.15 nM biotinylated truncated STAT6 (123-632)-avi purified from E. coli, 1× Streptavidin-terbium (CisBio) prepared by mixing SA-Tb in PPI detection buffer (CisBio), 20 nM proprietary fluorescein-labeled probe, and test compounds in assay buffer consisting of 50 mM HEPES-Na pH 7.5, 100 mM NaCl, 1 mM EDTA, 2 mM DTT, 0.1% Tween-20 with a final volume of 20 uL. Compound stocks were dissolved at 10 mM in 100% DMSO and 11 point titration with 3 fold serial dilution was performed in white, opaque 384 well microplates. Reaction plates were incubated at room temperature for 30 minutes. Plates were centrifuged at low rpm for 5 mins, and the ratio of fluorescence intensities were measured at emission wavelengths for fluorescein acceptor (520 nm) and terbium donor (495 nm) on Envision Plate reader. % Inhibition was calculated from the 520/495 ratio generated by using proprietary positive control compound for 100% inhibition and DMSO only reactions for 0% inhibition. Data was processed and dose response curves were generated using GraphPad Prism to determine the concentration required for inhibiting 50% of the HTRF signal (IC50).
The letter codes for IC50 (μM) include: A (<0.1 μM); B (0.1-1 μM); C (>1-10 μM); D (>10-100 μM); E (>100 μM); and F (not tested).

As for `CN(C)C(=O)c1cc2ccc(C3=CCCN(C(=O)C4Cc5c(cccc5OCCOCCOCCOCCOCCc5cccc6c5n(C)c(=O)n6C5CCC(=O)NC5=O)CN4C=O)C3)cc2[nH]1` (stereo not drawn) [I-61], at STAT6 [1], the DC50 is > 1000 nM and the Dmax was < 50%.
Taken in the same sequence, the figures for `CN(C)C(=O)c1cc2ccc(C3=CCCN(C(=O)C4Cc5c(cccc5OCCOCCOCCOCCOCCc5ccc6c(c5)n(C)c(=O)n6C5CCC(=O)NC5=O)CN4C=O)C3)cc2[nH]1` (stereo not drawn) [I-105] were > 1000 nM and < 50%.
For the compound `COc1cc(N2CCN(CCc3cccc4c3n(C)c(=O)n4C3CCC(=O)NC3=O)CC2)ccc1-c1cc(C2=CCCN(C(=O)CCn3ccnn3)C2)c(F)c2cnccc12` (stereo not drawn) [I-1270], at STAT6 [2], the DC50 was > 1000 nM and the Dmax is < 50%. The same compound gave an IC50 in experiment [3] of 1000 to 10000 nM.
Taken in the same sequence, the figures for `COc1cc(N2CCN(CCc3cccc4c3n(C)c(=O)n4C3CCC(=O)NC3=O)CC2)ccc1-c1cc(C2=CCCN(C(=O)CCn3ccnn3)C2)c(F)c2ccncc12` (stereo not drawn) [I-1271] were > 1000 nM, < 50% and 1000 to 10000 nM.
The like results for `COc1cc(N2CCN(CCc3cccc4c3n(C)c(=O)n4C3CCC(=O)NC3=O)CC2)ccc1-c1cc(Nc2ccccn2)c(F)c(C2=CCCN(C(=O)CCn3ccnn3)C2)c1` (stereo not drawn) [I-1272] were, in that order, < 1 nM, > 90% and 100 to 1000 nM.
As to `COc1cc(N2CCN(CCc3cccc4c3n(C)c(=O)n4C3CCC(=O)NC3=O)CC2)ccc1-c1cc(C2=CCCN(C(=O)CCn3ccnn3)C2)ccc1C(=O)N(C)C` (stereo not drawn) [I-1282], on STAT6 [2], the DC50 is > 1000 nM and the Dmax is < 50%. In experiment [3], this compound registered an IC50 of 10000 to 100000 nM.
On to `COc1cc(N2CCN(CCc3cccc4c3n(C)c(=O)n4C3CCC(=O)NC3=O)CC2)ccc1-c1cc(C2CCCCN(C(=O)CCn3ccnn3)C2)c(F)c2[nH]c(C(=O)N(C)C)cc12` (stereo not drawn) [I-1292], for which, at STAT6 [2], the DC50 was < 1 nM and the Dmax was > 90%.
In the case of `COc1cc(N2CCN(CCc3cccc4c3n(C)c(=O)n4C3CCC(=O)NC3=O)CC2)ccc1-c1cc(C2=CCCN(C(=O)CCn3ccnn3)C2)cc2ccc(C(=O)N(C)C)cc12` (stereo not drawn) [I-1293], at STAT6 [2], the DC50 was < 1 nM and the Dmax was > 90%. Also, the IC50 in experiment [3] was < 100 nM.
The like results for `COc1cc(N2CCN(CCc3cccc4c3n(C)c(=O)n4C3CCC(=O)NC3=O)CC2)ccc1-c1cc(-c2cccc(C(=O)N(C)C)c2)c(F)c2[nH]c(C(=O)N(C)C)cc12` (stereo not drawn) [I-1302] were, in that order, 1 to 10 nM, 70 to 90% and 1000 to 10000 nM.
Turning to `COc1cc(N2CCN(CCc3cccc4c3n(C)c(=O)n4C3CCC(=O)NC3=O)CC2)ccc1-c1cc(C2=CCCN(C(=O)CCn3ccnn3)C2)ccc1-n1ccccc1=O` (stereo not drawn) [I-1309], at STAT6 [2], the DC50 was > 1000 nM and the Dmax was < 50%.
On STAT6 [2], `COc1cc(N2CCN(CCc3cccc4c3n(C)c(=O)n4C3CCC(=O)NC3=O)CC2)ccc1-c1cc(C(=O)N(C)C)ccc1C1=CCCN(C(=O)CCn2ccnn2)C1` (stereo not drawn) [I-1323] displayed a DC50 of 100 to 1000 nM and a Dmax of 70 to 90%. Besides, the IC50 in experiment [3] was in the range of 100 to 1000 nM.
`COc1cc(N2CCN(CCc3cccc4c3n(C)c(=O)n4C3CCC(=O)NC3=O)CC2)ccc1-c1cc(NC(=O)CCn2ccnn2)ccc1-c1ncc(C(=O)N(C)C)[nH]1` (stereo not drawn) [I-1324]: on STAT6 [2], the DC50 was > 1000 nM and the Dmax was < 50%. In experiment [3], this compound yielded a half-inhibitory concentration (IC50) of 10000 to 100000 nM.
Taken in the same sequence, the figures for `COc1cc(N2CCN(CCc3cccc4c3n(C)c(=O)n4C3CCC(=O)NC3=O)CC2)ccc1-c1cc(C2=CCCN(C(=O)CCn3ccnn3)C2)cc2c1CN(C(=O)N(C)C)C2` (stereo not drawn) [I-1334] were 10 to 100 nM, 70 to 90% and 1000 to 10000 nM.
Taken in the same sequence, the figures for `COc1cc(N2CCN(CCc3cccc4c3n(C)c(=O)n4C3CCC(=O)NC3=O)CC2)ccc1-c1cc(C2=CCCN(C(=O)CCn3ccnn3)C2)cnc1CNC(=O)N(C)C` (stereo not drawn) [I-1336] were > 1000 nM, < 50% and 1000 to 10000 nM.
For the compound `COc1cc(N2CCN(CCc3cccc4c3n(C)c(=O)n4C3CCC(=O)NC3=O)CC2)ccc1-c1cc(C2=CCCN(C(=O)CCn3ccnn3)C2)cc2cc(C(=O)N(C)C)cnc12` (stereo not drawn) [I-1338], at STAT6 [2], the DC50 was > 1000 nM and the Dmax is < 50%. For the same compound, in experiment [3], the IC50 was 10000 to 100000 nM.
The compound `COc1cc(N2CCN(CCc3cccc4c3n(C)c(=O)n4C3CCC(=O)NC3=O)CC2)ccc1-c1cc(C2=CCCN(C(=O)CCn3ccnn3)C2)cc2ccncc12` (stereo not drawn) [I-1401] had an IC50 in experiment [3] of 10000 to 100000 nM.
